Paper PMC9762789, “Chromone-based monoamine oxidase B inhibitor with potential iron-chelating activity for the treatment of Alzheimer’s disease” (Journal of Enzyme Inhibition and Medicinal Chemistry, 2022)
Like-named read-outs stand apart in the source and are kept apart here.

Experiments:
PAMPA-BBB assay = format: in vitro ADME; conditions: PAMPA-BBB, mean ± SEM of eight independent experiments
Excerpt: Good blood–brain barrier (BBB) permeability is the key to exerting drug efficacy in the treatment of central nervous system diseases. To evaluate whether the target compound could penetrate BBB, a parallel artificial membrane permeability assay (PAMPA) was used to predict[32]^,[33]. […] Therefore, due to its potential ability to cross the BBB, compound 17d was selected for subsequent assay.
PAMPA was used to predict the BBB permeability of the screened compound. The detailed process has been mentioned in our early work[32]^,[33].

Human MAO-A = biological target: T1, Human MAO-A (Homo sapiens, UniProt P21397); test: hMAO-A inhibition assay; format: biochemical
T1 construct: purchased Sigma-Aldrich
T1 sequence (P21397 1-527): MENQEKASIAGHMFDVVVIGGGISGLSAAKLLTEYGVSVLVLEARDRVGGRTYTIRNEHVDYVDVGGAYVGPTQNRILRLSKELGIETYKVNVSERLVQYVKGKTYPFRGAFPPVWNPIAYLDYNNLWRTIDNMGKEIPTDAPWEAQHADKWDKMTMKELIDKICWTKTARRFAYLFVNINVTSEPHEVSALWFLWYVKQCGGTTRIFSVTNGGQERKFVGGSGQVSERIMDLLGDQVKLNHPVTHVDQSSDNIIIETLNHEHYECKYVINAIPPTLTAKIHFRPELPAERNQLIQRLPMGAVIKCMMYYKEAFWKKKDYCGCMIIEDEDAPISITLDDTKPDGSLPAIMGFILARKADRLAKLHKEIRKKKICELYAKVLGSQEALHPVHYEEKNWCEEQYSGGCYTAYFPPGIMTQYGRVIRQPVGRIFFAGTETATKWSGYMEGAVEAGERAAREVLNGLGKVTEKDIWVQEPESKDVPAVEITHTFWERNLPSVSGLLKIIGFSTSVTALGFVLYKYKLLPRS
Procedure: Further, the inhibitory activity of compounds against hMAO-A isoform was tested and calculated as a selectivity index [Selectivity index (SI): IC50 (hMAO-A)/IC50 (hMAO-B)].
(§1) The reagents and enzymes (Human MAO-B and Human MAO-A) applied in this experiment were purchased from Sigma-Aldrich. According to the manuals, all components (substrate solution and enzyme solution) are diluted and placed aside for use. The detailed process has been mentioned in our early work[34].

[1] = pKa determination by automated spectrophotometric titration; format: physicochemical; conditions: 0.1 M KCl solution
[2] = iron (III) affinity constants and pFe3+ by spectrophotometric titration; format: physicochemical; conditions: for Log β1 / Log β2 / Log β3: DMSO: KCl (0.1 M) = 1:1.5 (v/v); for pFe^3+: calculated from Log β values obtained in DMSO: KCl (0.1 M) = 1:1.5 (v/v)
MAO-B = biological target: T2, MAO-B (Homo sapiens, UniProt P27338); test: hMAO-B inhibition assay; format: biochemical; conditions: for inhibition at 0.1 µM: read-out: Inhibitory rate (%, 100 nM)
T2 construct: purchased Sigma-Aldrich
T2 sequence (P27338 1-520): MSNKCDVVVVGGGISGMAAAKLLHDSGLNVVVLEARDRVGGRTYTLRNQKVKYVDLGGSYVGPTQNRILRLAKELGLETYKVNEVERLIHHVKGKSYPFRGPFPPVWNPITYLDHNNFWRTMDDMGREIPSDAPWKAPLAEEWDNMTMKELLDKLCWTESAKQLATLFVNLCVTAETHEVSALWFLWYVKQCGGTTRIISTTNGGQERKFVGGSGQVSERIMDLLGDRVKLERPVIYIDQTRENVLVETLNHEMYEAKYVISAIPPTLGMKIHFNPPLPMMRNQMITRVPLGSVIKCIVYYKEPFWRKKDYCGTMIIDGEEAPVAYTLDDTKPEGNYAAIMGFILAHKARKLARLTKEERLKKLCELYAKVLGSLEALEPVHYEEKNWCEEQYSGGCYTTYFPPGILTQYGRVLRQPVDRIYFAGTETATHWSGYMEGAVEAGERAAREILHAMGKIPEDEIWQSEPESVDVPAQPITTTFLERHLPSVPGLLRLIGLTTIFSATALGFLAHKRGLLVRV
Procedure: as §1

[3] = system: scopolamine-induced cognitive impairment mice model; test: Morris water maze test, scopolamine-induced memory impairment; format: in vivo, ICR mice; set-up: Distance to first entry: unit not given here; conditions: 15 mg/kg, scopolamine 15 mg/kg, ICR mice, mean ± SEM, n = 15; for Latency to first entry: in s (unit assumed)
Excerpt: To further explore the in vivo anti-AD effect of compound 17d on the scopolamine-induced cognitive impairment mice model, the Morris Water Maze experiment was selected; data are shown in Figure 7 and Table 5.
Figure 7.
Adult female ICR mice (weight 20–25 g) were obtained from the Zhejiang Academy of Medical Sciences (Hangzhou, China). Scopolamine hydrobromide and Pargyline were purchased from Aladdin Reagents. Memantine was purchased from Energy Chemical. All experiments were approved by the Laboratory Animals Ethical Committee of the Zhejiang University of Technology (No. 20211210103). In this test, mice were prepared as clarified and clear injections, consisting of 20% (2-Hydroxypropyl)-β-cyclodextrin, 10% DMSO, and PBS. […] Mice were administered at a frequency of once a day over 15 d with a fixed dosing schedule. The body weight of mice was measured during the experiment.
After eliminating environmental stress, the behavioural test was performed over the next five days. The mice were trained to find the platform (10 cm diameter) in the circular light-avoidance pool (120 cm diameter and 60 cm height) filled with water (40 cm, depth), which was described in detail in our previous study. All mice received at least one training session daily in four quadrants for four consecutive days before the probe trial of finding the platform within 120 s. Recordings were made with SMART version 3.0 (Panlab, Spain) and processed by Graphpad Prism version 6 software (Graphpad Software Inc., La Jolla, CA, USA).

IC50 (Human MAO-A) | pKa ([1]; read-out: pKa1) | pKa ([1]; read-out: pKa2) | Log β1 [2] | Log β2 [2] | Log β3 [2] | pFe^3+ [2] | IC50 (MAO-B) | SI: hMAO-B selectivity index = IC50 (hMAO-A)/IC50 (hMAO-B) (MAO-B) | inhibition at 0.1 µM (MAO-B; hMAO-B, 100 nM) | melting point | SMILES | Entries to target [3] | Latency to first entry [3] | other results
2.06 ± 0.0354 µM | 2.81 | 9.8 | 13.46 | 25.19 | 35.28 | 18.62 | 0.0673 ± 0.0019 µM | 30.7 | 53.1 ± 1.6% | 248 to 250 °C | Cc1c(O)c(=O)ccn1CCNCc1coc2ccccc2c1=O [Compound 17a, 3-Hydroxy-2-methyl-1–(2-(((4-oxo-4H-chromen-3-yl)methyl)amino)ethyl)pyridin-4(1H)-one] |  |  | Pe ± SEM (PAMPA-BBB assay): 1.22 ± 0.22 *10^−6 cm/s; Papp (PAMPA-BBB assay; read-out: Pe ± SEM): 12.2 ± 2.2 nm/s
1.31 ± 0.0134 µM | 2.61 | 9.47 | 13.02 | 24.99 | 34.39 | 18.70 | 0.0756 ± 0.0031 µM | 17.4 | 61.4 ± 3.4% | 189 to 191 °C | Cc1c(O)c(=O)ccn1CCNCc1coc2cc(OCc3ccc(Cl)cc3)ccc2c1=O [Compound 17l, 1–(2-(((7-((4-Chlorobenzyl)oxy)-4-oxo-4H-chromen-3-yl)methyl)amino)ethyl)-3-hydroxy-2-methylpyridin-4(1H)-one] |  |  | 
 |  |  |  |  |  |  |  |  |  |  | CC12CC3CC(C)(C1)CC(N)(C3)C2 [Memantine] | 4.0 ± 0.3 | 13 ± 1 | Entries to target ([3]; listed as memantine): 4.0 ± 0.3; Latency to first entry ([3]; listed as memantine): 13 ± 1
 |  |  |  |  |  |  |  |  |  |  | C#CCN(C)Cc1ccccc1 [Pargyline] | 5.3 ± 0.9 | 11 ± 1 | Distance to first entry [3]: 2.6 ± 0.3; Distance to first entry ([3]; listed as pargyline): 2.6 ± 0.3; Entries to target ([3]; listed as pargyline): 5.3 ± 0.9; Latency to first entry ([3]; listed as pargyline): 11 ± 1; inhibition at 0.1 µM (MAO-B): 48.9 ± 1.7%
